Consider one compound from US12582809B2, “Treatment of a disease of the gastrointestinal tract with a PDE4 inhibitor” (BT Bidco, Inc., priority 2018, dated 2026).

A short description of data set [1]: Pharmacokinetic study of oral vs intra-cecal administration of tacrolimus (Example 13). On the set-up: species or system Yorkshire-Cross farm swine. Particulars: in vivo, 0.09 mg/kg. The text has this:
(§1) No further randomization procedure was employed.

Details of data set [2]: species or system Yorkshire-Cross farm swine. As to conditions: in vivo. The protocol: The primary objective of this study was to compare the tissue, plasma, rectal sample, and GI content pharmacokinetics of tacrolimus through oral versus intra-cecal ingestible device delivery in normal Yorkshire-Cross farm swine.
as §1
Animals in Group 1 received an ingestible device containing 0.8 mL of vehicle solution (80% alcohol, 20% HCO-60). Animals in Group 2 received orally […] liquid formulation of tacrolimus at 4 mg/0.8 mL per animal (Prograf: 5 mg/mL). Animals in Group 3 received intra-cecally an ingestible device containing tacrolimus at 1 mg in 0.8 mL per ingestible device. Animals in Group 4 received intra-cecally an ingestible device containing tacrolimus at 2 mg in 0.8 mL per ingestible device. Animals in Group 5 received intra-cecally an ingestible device containing tacrolimus at 4 mg in 0.8 mL per ingestible device. To control for potential confounding effects of the surgery, all groups fast on Day −11 at least 24 hr before being subjected to anesthesia followed by surgical placements of a cecal port by a veterinary surgeon at Day −10. All animals were fasted for at least 12 hr prior to dosing on Day 1. Animals were dosed via either intra-cecal dosing (IC) or oral dosing (PO) at Day 1 (between 6-8 p.m.). All animals resumed feeding at approximately 4 hours after dose (11-12 p.m. after dosing).
Animals in Group 1 (Vehicle Control) were administered a single intra-cecal ingestible device containing 0.8 mL Vehicle solution (80% alcohol, 20% castor oil (HCO-60) on Day 1. On Day −10 the animals were anesthetized, and a veterinary surgeon surgically placed an intra-cecal port in each animal. On Day 1, each animal was placed into a sling then a single intra-cecal ingestible device containing 0.8 mL vehicle solution (80% alcohol, 20% castor oil (HCO-60)) is introduced by the veterinary surgeon into the cecum via the cecal port in each animal. Following ingestible device placement, the animals were removed from the slings and placed back into their pens with water. All animals resumed feeding at approximately 4 hours after dose. […] A total of 60 samples were collected.
Approximately 200˜400 mg of rectal content were collected, if available, with a fecal swab (Copan Diagnostics Nylon Flocked Dry Swabs, 502CS01). The fecal swab was pre-weighed and weighed after collection in the collection tube (Sterile Tube and Cap No Media, PFPM913S), and the sample weight was recorded. The fecal swab was broken via the breakpoint, and was stored in the collection tube, and immediately frozen at −70° C. […] Immediately following euthanasia, tissue was collected.
For tissue necropsy, small intestine fluid and cecal fluid were collected separately from all the animals into two separate square plastic bottles, and stored at −20° C. The length and diameter of the cecum and the colon was measured from one animal in each group and recorded for reference. Tissues were collected for pharmacokinetic analyses and include mesenteric lymph nodes, a Peyer's Patch, and five gastrointestinal sections, including cecum, proximal colon, transverse colon, distal colon, and rectum. All samples were weighed, and the tissue sample weights were recorded. In each of the five gastrointestinal sections, tissue samples were collected in three different areas where the mucosal surface was visible and not covered by luminal content by using an 8.0-mm punch biopsy tool. Around 3 grams of the total punched sample were collected into a pre-weighed 15-mL conical tube, and the tissue weight was recorded. Three mesenteric lymph nodes were collected from different areas and weighed. At least one Peyer's Patch was collected and weighed.
Luminal contents were collected for pharmacokinetic analyses from the surface of the tissue from each of five gastrointestinal sections: cecum, proximal colon, transverse colon, distal colon, and rectum (total of 75). […]

Where [3] appears, read: female, Yorkshire-Cross, pig, po, 12 h.

With `C=CC[C@@H]1/C=C(\C)C[C@H](C)C[C@H](OC)[C@H]2O[C@@](O)(C(=O)C(=O)N3CCCC[C@H]3C(=O)O[C@H](/C(C)=C/[C@@H]3CC[C@@H](O)[C@H](OC)C3)[C@H](C)[C@@H](O)CC1=O)[C@H](C)C[C@@H]2OC` [tacrolimus], the Kp at 12 h in data set [1] (female, Yorkshire-Cross, pig, po) was 0. In data set [1] (setting [3]), the “Ratio Tissue(mean) (ng/g)/Trough(12 hr) (ng/mL), Cecum” value worked out at 0; the “Ratio Tissue(mean) (ng/g)/Trough(12 hr) (ng/mL), Distal Colon” value worked out at 0; the “Ratio Tissue(mean) (ng/g)/Trough(12 hr) (ng/mL), Proximal Colon” value is listed as 0; the “Ratio Tissue(mean) (ng/g)/Trough(12 hr) (ng/mL), Transverse colon” value stood at 0. Further, the “Trough (12 hr)” value in data set [1] (female, Yorkshire-Cross, swine, po, 12 h) came out at 0.568 ng/mL. The compound also yielded a concentration at 12 h in data set [1] (female, Yorkshire-Cross, swine, po, Trough (12 hr)) of 0.568 ± 0.291 ng/mL. Further, in data set [1], the “AUC0-12 hours in the blood, intra-cecal vs oral” value is recorded as “higher” and the “mean concentration in the blood, intra-cecal vs oral” value is given as “higher”. Also, in data set [2], the “exposure AUC” value is on record as < 2000-12 ng·h/mL; the “luminal content concentration, distal colon, IC capsule vs PO” value is given as “Significantly higher”; the “luminal content concentration, spiral colon, IC capsule vs PO” value is recorded as “Significantly higher”; the “luminal content concentration, transverse colon, IC capsule vs PO” value is reported as “Significantly higher”. Also, in data set [2], the “tissue concentration, spiral colon, IC capsule vs PO” value was “Significantly higher” and the “tissue concentration, transverse colon, IC capsule vs PO” value is “Significantly higher”. For the same compound, the “level of tacrolimus detected in tissue” value in data set [2] (po) is “No measurable level”.
